Patent US20200216449A1, “4-Sulfur Substituted Podophyllotoxin Derivative and Preparation Method Therefor and Use Thereof” (priority 2017, published 2020)

Experiments:
HepG2 = test: MTT test for inhibition of tumor cells, HepG2; type: cell-based; settings: 48 h
HeLa = test: MTT test for inhibition of tumor cells, HeLa; type: cell-based; settings: 48 h
Protocol: HepG2, HeLa cell lines and human normal liver cells HL-7702 in a logarithmic growth period were centrifuged at 1000 rpm for 5 min, and the supernatant was discarded, the cells were suspended with a suitable amount of culture medium to adjust the cell concentration to 3.5×10^4/well, the cells were seeded in 96-well plates, and the following experimental groups were set:
100 μl of DMSO was added to each well, followed by shaking on a shaker for 30 min at 37° C., the absorbance (OD) was measured at 492 nm, and the MTT ratio was calculated as the OD value of drug group/OD value of negative control group.

HL-7702 = test: MTT test on human normal hepatocytes HL-7702; type: cell-based; settings: human normal hepatocytes HL-7702, MTT, 48 h
A549 = test: IC50 against human lung cancer cell A549; type: cell-based; settings: for antitumor activity on A549 compared with etoposide: vs etoposide
MCF7 = test: IC50 against breast cancer cell MCF7; type: cell-based, human; settings: vs etoposide
MRC-5 = test: IC50 against human embryonic lung cells MRC-5; settings: for toxicity on normal cell line MRC-5 compared with etoposide: vs etoposide
HMEC = test: IC50 against human mammary epithelial cells HMEC; settings: for toxicity on normal cell line HMEC compared with etoposide: vs etoposide
H8 = test: IC50 against human cervical immortalized cells H8; settings: for toxicity on normal cell line H8 compared with etoposide: vs etoposide

| Compound | IC50 (HepG2) [µM] | IC50 (HeLa) [µM] | IC50 (HL-7702) [µM] | further results |
| --- | --- | --- | --- | --- |
| 4β-S-(3-phenyl-1,3,4-thiadiazol-2(3H)thione potassium salt-5)-4′-demethylepipodophyllotoxin [Compound 26] | 5.7 ± 0.33 | 48.49 ± 0.38 | – | – |
| 4β-S-(5-phenylbenzoxazol-2)-4′-demethylepipodophyllotoxin [Compound 12] | 10.2 ± 0.46 | > 100 | 56.8 ± 1.32 | – |
| 4β-S-(6-chlorobenzoxazol-2)-4′-demethylepipodophyllotoxin [Compound 16] | 22.3 ± 1.46 | 32.3 ± 1.87 | 68.3 ± 4.5 | – |
| COc1cc(C2c3cc4c(cc3C(O)C3COC(=O)C23)OCO4)cc(OC)c1O (centres unmarked) [4′-Demethylepipodophyllotoxin, 4′-demethylepipodophyllotoxin, reference compound] | 49.32 ± 0.38 | 63.09 ± 0.49 | 52.9 ± 0.85 | – |
| COc1cc([C@@H]2c3cc4c(cc3[C@@H](Sc3ccc(F)cc3)[C@H]3COC(=O)[C@H]23)OCO4)cc(OC)c1O [Compound 6, 4β-S-(4-fluorobenzene-1)-4′-demethylepipodophyllotoxin] | 4.24 ± 0.97 | 55.28 ± 0.21 | 51 ± 0.88 | – |
| COc1cc([C@@H]2c3cc4c(cc3[C@@H](Sc3nc5cc(F)ccc5s3)[C@H]3COC(=O)[C@H]23)OCO4)cc(OC)c1O [Compound 8, 4β-S-(5-fluorobenzothiazol-2)-4′-demethylepipodophyllotoxin] | 1.49 ± 0.12 | 2.3 ± 0.12 | 966.2 ± 7.31 | antitumor activity on A549 compared with etoposide (A549): significantly improved; antitumor activity on MCF7 compared with etoposide (MCF7): significantly improved; toxicity on normal cell line MRC-5 compared with etoposide (MRC-5): significantly lower; toxicity on normal cell line HMEC compared with etoposide (HMEC): significantly lower; toxicity on normal cell line H8 compared with etoposide (H8): significantly lower |
| COc1cc(C2c3cc4c(cc3C(Sc3nc5cc(F)ccc5o3)C3COC(=O)C23)OCO4)cc(OC)c1OC (stereo not drawn) [Compound 9, 4β-S-(5-Fluorobenzoxazol-2)-podophyllotoxin] | – | – | > 1000 | – |
| COc1cc([C@@H]2c3cc4c(cc3[C@@H](Sc3nc5cc(F)ccc5o3)[C@H]3COC(=O)[C@H]23)OCO4)cc(OC)c1O [Compound 10, 4β-S-(5-fluorobenzoxazol-2)-4′-demethylepipodophyllotoxin] | 1.55 ± 0.29 | 1.49 ± 0.14 | 2000 ± 12.8 | IC50 (A549; human lung cancer cell A549): 2340 ± 160 nM; antitumor activity on A549 compared with etoposide (A549): significantly improved; antitumor activity on MCF7 compared with etoposide (MCF7): significantly improved; IC50 (MRC-5; read-out: IC50 MRC-5, normal cell line, human embryonic lung cells MRC-5): 348.9 ± 3.1 µM; toxicity on normal cell line MRC-5 compared with etoposide (MRC-5): significantly lower; IC50 (HMEC; read-out: IC50 HMEC, normal cell line, human mammary epithelial cells HMEC): 323.4 ± 3.21 µM; toxicity on normal cell line HMEC compared with etoposide (HMEC): significantly lower; IC50 (H8; read-out: IC50 H8, normal cell line, human cervical immortalized cells H8): 518.9 ± 1.9 µM; toxicity on normal cell line H8 compared with etoposide (H8): significantly lower |
| COc1cc([C@@H]2c3cc4c(cc3[C@@H](Sc3ccc5ccccc5c3)[C@H]3COC(=O)[C@H]23)OCO4)cc(OC)c1O [Compound 20, 4β-S-(naphthalen-2)-4′-demethylepipodophyllotoxin] | 6.02 ± 0.25 | 5.54 ± 0.3 | 76.8 ± 2.11 | – |
| COc1cc([C@@H]2c3cc4c(cc3[C@@H](Sc3nc5ncccc5[nH]3)[C@H]3COC(=O)[C@H]23)OCO4)cc(OC)c1O [Compound 22, 4β-S-(1H-imidazo[4,5-B]pyridin-2)-4′-demethylepipodophyllotoxin] | 8.31 ± 0.43 | > 100 | 33.5 ± 3.25 | – |
| COc1cc([C@@H]2c3cc4c(cc3[C@@H](Sc3nnnn3-c3ccccc3)[C@H]3COC(=O)[C@H]23)OCO4)cc(OC)c1O [Compound 24, 4β-S-(1-phenyltetrazol-5)-4′-demethylepipodophyllotoxin] | 59.69 ± 0.31 | 9.73 ± 0.11 | 71 ± 3.67 | – |
